target: T1, NS5B (Hepatitis C virus genotype 1b, UniProt P26663); test: X-ray crystallography of fragments soaked into NS5B crystals; assay type: binding; conditions: fragments soaked at 5 mM
T1 construct: NS5B with a C-terminal 10-His tag was expressed in E. coli; 10-His (C); made in house; host or cells: E. coli
Source text: Similar to other nucleotide polymerases, the domain distribution of apo HCV NS5B polymerase bears an anatomical resemblance to a right hand with subdomains representing the fingers, thumb and palm[50][51]. Structural and mechanistic studies of NS5B have indicated the existence of multiple allosteric binding domains including palm I, II and III pockets and thumb I and II sites targeted by reported inhibitors. To characterize the binding modes of the fragments studied, they were soaked in NS5B crystals to obtain the protein complex X-ray structures. We were able to resolve electron density corresponding to the soaked compound for five out of ten fragments (crystallographic data summary in Table S4).
Moreover, the interaction could be enhanced by a π-π conjugate between its benzene ring and Tyr448 (Figure 3A). Fragment 204 engages deep in the palm I pocket through its trifluoromethyl moiety forming a hydrogen bond with Ser368 and van der Waals interaction with Cys366. Additionally, the hydrophobic interaction with Met414 as well as the π-π conjugate to Tyr448 may also contribute to the relatively high binding affinity of this fragment (Figure 3B). Fragment 117 binds at the pocket mainly through van der Waals interactions with Met414, Cys366 and Ser368 (Figure 3C), whereas fragment 328 forms van der Waals interactions with Tyr415 and Cys366 (Figure 3D). We assume these weak interactions may result in the lower binding strengths observed for the two fragments. Fragment 162 binds NS5B in a small cavity of the thumb pocket, with its trifluoromethyl moiety extending a key hydrogen bond with Asn369 as well as making hydrophobic interactions with Ser371 and Glu481. To our knowledge, the three residues constitute a new active domain in the thumb region never disclosed before.
The final optimized NS5B crystals were grown by the hanging drop method using a well solution of 30 mg/mL protein, 20% (w/v) PEG-4000, 10% (v/v) glycerol, 5 mM DTT and 50 mM MES (pH 5.5) and diffracted to 2 Å. Fragments were soaked onto the NS5B crystals at a final concentration of 5 mM (2.38% DMSO) for 2–3 days. Diffraction data were collected at Rigaku MicorMax 007HF X-ray diffraction instrument with an R-AXIS HTC detector (Rigaku), and processed using CCP4[60]. The NS5B structure was solved by molecular replacement using NS5B (1QUV) as the search model. The fragment-bound NS5B complex structures were determined by rigid-body refinement using the apo NS5B structure as a starting model. Structure improvement proceeded with multiple rounds of manual model building in Coot, followed by refinement using CCP4. Fragment ligands were fitted into clear Fo-Fc electron density at the late stage of refinement. Images were rendered from PyMOL.

Row | Structure (SMILES) | Binding site in crystal structure
1 | N#CCc1ccc(O)cc1 [Fragment 114] | palm I allosteric domain
2 | Cc1ccc2oc(=O)ccc2c1 [Fragment 117] | palm I allosteric domain
3 | Nc1ccc(C(F)(F)F)cn1 [Fragment 162] | thumb region
4 | O=C(O)c1ccc(C(F)(F)F)cc1 [Fragment 204] | palm I allosteric domain
5 | N#CC(c1ccccc1)N1CCOCC1 (stereo not drawn) [Fragment 328] | palm I allosteric domain

target: T2, NS5B wild-type (Hepatitis C virus genotype 1b, UniProt P26663); test: In-solution binding specificity, ligand-observed MS, wild-type NS5B; conditions: WT + 204; defined as 100%
T2 construct: NS5B with a C-terminal 10-His tag was expressed in E. coli; 10-His (C); made in house; host or cells: E. coli
Source text: To evaluate the binding specificity of fragment 204 to the palm domain of NS5B through interacting with certain residues indicated in the crystallographic data, we prepared two presumable binding-site mutants in the palm domain (C366A and M414T), and a control mutant in the thumb domain (M423T). […] Therefore, this experiment strongly implicated the finding by X-ray crystallography that fragment 204 binds to the palm domain of NS5B through interaction with Cys366 and Met414 was also valid in solution.
NS5B with a C-terminal 10-His tag was expressed in E. coli. Site-directed mutagenesis was performed using the Quick Site-directed mutagenesis kit according to the manufacturer's instructions (Stratagene, China). All constructs were verified by DNA sequencing. […]
In the primary screening, a mixture of 384 fragments (each at a final concentration of 25 μM) and NS5B at 50 μM was prepared in the binding buffer of 20 mM MES (pH 6.5), 300 mM NaCl and 10% glycerol, and incubated for 40 min at 25°C. […] The supernatant containing the ligands was evaporated by a speed vacuum, reconstituted in 80% methanol, and analyzed by LC/MS. […] Samples were all prepared in duplicate and analyzed separately.

Row | Structure (SMILES) | MS int. (%)
6 | O=C(O)c1ccc(C(F)(F)F)cc1 [Fragment 204] | 100.0
